Where two headings read alike, the source gives them in different places.
Legend:
Assay type in all cases: cell-based
[1] = tested on: RS4;11-BCL-2 F104L cells; experiment: Cell proliferation assay, engineered RS4;11 cells stably overexpressing BCL-2 F104L (MTS, 168 h); settings: Homo sapiens, read-out: RS4, 11 BCL2-F104L
Outline: (§1)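 Proliferation read-out: MTS for exactly 2 h, then absorbance at 490 nm, with IC50 derived from the fit. Before this, engineered RS4;11 lines (BCL-2 G101V, F104L; 5000 cells/well) were exposed 168 h at 37 °C to serially diluted compound, final 1.4–10000 nM.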

[2] = tested on: Toledo cells; experiment: Cell proliferation assay, Toledo cells (MTS, 72 h); settings: Toledo cells, MTS, read-out: Toledo IC50
Outline: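 IC50 was derived from 490 nm absorbance after a 2 h MTS step. Before that, compounds at 1.5–10000 nM final (nine points) acted on Toledo cells for 72 h at 37 °C, 5% CO2. Cells were seeded at 30000/well in 10% FBS RPMI-1640 and rested 4 h before dosing.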

[3] = tested on: RS4;11-BCL-2 G101V cells; experiment: Cell proliferation assay, engineered RS4;11 cells stably overexpressing BCL-2 G101V (MTS, 168 h); settings: read-out: RS4, 11 BCL2- G101V
Outline: as §1

SMILES | IC50 [1] | IC50 ([3]; Homo sapiens, RS4-11, 168 h) | IC50 [3] | IC50 ([2]; Homo sapiens) | IC50 [2]
CCOc1nc2[nH]cc(F)c2cc1Oc1cc(N2CCC3(CC2)CC(N2CCC[C@H]2c2ccccc2C(C)C)C3)ccc1C(=O)NS(=O)(=O)c1cc2c(c([N+](=O)[O-])c1)N[C@@H]([C@H]1CC[C@](C)(O)CC1)CO2 (single isomer, unassigned) [Example D-85, 2-((6-ethoxy-3-fluoro-1H-pyrrolo [2,3-b]pyridin-5-yl)oxy)-N-(((S)-3-((1r,4S)-4-hydroxy-4-methylcyclohexyl)-5-nitro-3,4-dihydro-2H-benzo[b][1,4]oxazin-7-yl)sulfonyl)-4-(2-((R or S)-2-(2-isopropylphenyl)pyrrolidin-1-yl)-7-azaspiro[3.5]nonan-7-yl)benzamide] | 5 nM | 28 nM | – | 1 nM | –
CC(C)c1ccccc1[C@@H]1CCCN1C1CC2(CCN(c3ccc(C(=O)NS(=O)(=O)c4cc5c(c([N+](=O)[O-])c4)N[C@@H]([C@H]4CC[C@](C)(O)CC4)CO5)c(Oc4cc5cc[nH]c5nc4OC[C@H]4CCN4C)c3)CC2)C1 (single isomer, unassigned) [Example D-123, N-(((S)-3-((1r,4S)-4-hydroxy-4-methylcyclohexyl)-5-nitro-3,4-dihydro-2H-benzo[b][1,4]oxazin-7-yl)sulfonyl)-4-(2-((R or S)-2-(2-isopropylphenyl)pyrrolidin-1-yl)-7-azaspiro[3.5]nonan-7-yl)-2-((6-(((7)-1-methylazetidin-2-yl)methoxy)-1H-pyrrolo[2,3-b]pyridin-5-yl)oxy)benzamide] | 11 nM | 1 nM | – | 1 nM | –
CC(C)c1ccccc1[C@@H]1CCCN1C1CC2(CCN(c3ccc(C(=O)NS(=O)(=O)c4cc5c(c([N+](=O)[O-])c4)N[C@@H]([C@H]4CC[C@](C)(O)CC4)CO5)c(Oc4cc5cc[nH]c5nc4OCCN4CCC4)c3)CC2)C1 (single isomer, unassigned) [Example D-61, 2-((6-(2-(azetidin-l-yl)ethoxy)-1H-pyrrolo[2,3-b]pyridin-5-yl)oxy)-N-(((S)-3-((1r,4S)-4-hydroxy-4-methylcyclohexyl)-5-nitro-3,4-dihydro-2H-benzo[b][1,4]oxazin-7-yl)sulfonyl)-4-(2-((R or S)-2-(2-isopropylphenyl)pyrrolidin-1-yl)-7-azaspiro[3.5]nonan-7-yl)benzamide] | 11 nM | 1 nM | – | 1 nM | –

Stronger by IC50 [1], values ahead:

IC50 [1] | IC50 ([3]; Homo sapiens, RS4-11, 168 h) | IC50 [3] | SMILES | IC50 ([2]; Homo sapiens) | IC50 [2]
1 nM | 1 nM | – | CCOc1nc2[nH]cc(F)c2cc1Oc1cc(N2CCC3(CC2)CN([C@H]2CCC[C@H]2c2ccccc2C(C)C)C3)ccc1C(=O)NS(=O)(=O)c1cc2c(c([N+](=O)[O-])c1)N[C@@H]([C@H]1CC[C@](C)(O)CC1)CO2 (single isomer, unassigned) [Example D-103, 2-((6-ethoxy-3-fluoro-1H-pyrrolo [2,3-b]pyridin-5-yl)oxy)-N-(((S)-3-((1r,4S)-4-hydroxy-4-methylcyclohexyl)-5-nitro-3,4-dihydro-2H-benzo[b][1,4]oxazin-7-yl)sulfonyl)-4-(2-((1S,2S or 1R,2R)-2-(2-isopropylphenyl)cyclopentyl)-2,7-diazaspiro[3.5]nonan-7-yl)benzamide] | 1 nM | –
1 nM | – | 7 nM | CC(C)c1ccccc1[C@@H]1CCC[C@@H]1N1CC2(CCN(c3ccc(C(=O)NS(=O)(=O)c4ccc(NC[C@H]5CC[C@](C)(O)CC5)c([N+](=O)[O-])c4)c(Oc4cnc5[nH]cc(F)c5c4)c3)CC2)C1 (single isomer, unassigned) [Example D-34b, 2-((3-fluoro-1H-pyrrolo[2,3-b]pyridin-5-yl)oxy)-N-((4-((((1r,4r)-4-hydroxy-4-methylcyclohexyl)methyl)amino)-3-nitrophenyl)sulfonyl)-4-(2-((1S,2S or 1R,2R)-2-(2-isopropylphenyl)cyclopentyl)-2,7-diazaspiro[3.5]nonan-7-yl)benzamide] | – | 1 nM

From patent publication US20230159527A1, “COMPOUNDS AS BCL-2 INHIBITORS” (Fochon Pharmaceuticals, Ltd., priority 2020, published 2023)
